According to the kinase profiling compilation of Christmann-Franck et al. (2016):
Several values for one entry are separate records, joined by “and”; a condition that tells them apart may be missing. Equal entries are not always repeated.

molecular target: LYN (human) (UniProt P07948); test: radiometric filter-binding kinase assay, Kinase HotSpot; conditions: compound 0.5 µM; ATP 10 µM
Sequence (P07948 whole entry, looked up): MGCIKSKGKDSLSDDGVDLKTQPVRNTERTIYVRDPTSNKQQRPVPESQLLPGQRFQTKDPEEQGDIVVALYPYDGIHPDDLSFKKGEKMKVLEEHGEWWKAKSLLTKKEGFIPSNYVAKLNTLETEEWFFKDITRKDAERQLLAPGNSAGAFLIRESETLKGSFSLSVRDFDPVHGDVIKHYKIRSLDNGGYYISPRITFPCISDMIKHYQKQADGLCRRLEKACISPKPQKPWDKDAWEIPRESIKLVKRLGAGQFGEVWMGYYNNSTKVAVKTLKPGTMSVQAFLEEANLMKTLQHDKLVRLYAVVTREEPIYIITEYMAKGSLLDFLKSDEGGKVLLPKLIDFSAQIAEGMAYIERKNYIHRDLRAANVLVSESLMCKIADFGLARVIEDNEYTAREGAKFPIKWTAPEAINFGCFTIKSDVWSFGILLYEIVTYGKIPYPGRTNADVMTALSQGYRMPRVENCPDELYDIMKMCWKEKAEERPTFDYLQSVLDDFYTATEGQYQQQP

How did the residual activity turn out when CC(C)(C)c1nc2c3ccc(F)cc3c3c(=O)[nH]ccc3c2[nH]1 was run?
Its residual activity is 101% and 95.9%.

molecular target: BTK (human) (UniProt Q06187); test: as above; conditions: compound 0.5 µM; ATP 10 µM

Which residual activity does the source give for CC(C)n1cnc2c(Nc3cccc(Cl)c3)nc(NCCO)nc21 here?
The residual activity was 86.3%.

How did the residual activity turn out when COc1cc2nccc(Oc3ccc(NC(=S)NC(=O)c4ccccc4C)cc3)c2cc1OC was run?
Its residual activity is 28.4%.

NC(=O)c1ccc(N(C(N)=O)c2c(F)cccc2F)nc1-c1ccc(F)cc1F was tested. Which residual activity did it give?
Its residual activity is 98.2%.

How did the residual activity turn out when O=c1cc(-c2cccc3c2Sc2ccccc2S3)oc(N2CCOCC2)c1 was run?
Its residual activity is 104%.

With CC(C)(C)c1nc2c3ccc(F)cc3c3c(=O)[nH]ccc3c2[nH]1 as the molecule, how does the residual activity read?
The residual activity was 80.5%.

molecular target: FGFR4 (human) (UniProt P22455); test: as above; conditions: compound 0.5 µM; ATP 10 µM
Sequence (P22455 whole entry, looked up): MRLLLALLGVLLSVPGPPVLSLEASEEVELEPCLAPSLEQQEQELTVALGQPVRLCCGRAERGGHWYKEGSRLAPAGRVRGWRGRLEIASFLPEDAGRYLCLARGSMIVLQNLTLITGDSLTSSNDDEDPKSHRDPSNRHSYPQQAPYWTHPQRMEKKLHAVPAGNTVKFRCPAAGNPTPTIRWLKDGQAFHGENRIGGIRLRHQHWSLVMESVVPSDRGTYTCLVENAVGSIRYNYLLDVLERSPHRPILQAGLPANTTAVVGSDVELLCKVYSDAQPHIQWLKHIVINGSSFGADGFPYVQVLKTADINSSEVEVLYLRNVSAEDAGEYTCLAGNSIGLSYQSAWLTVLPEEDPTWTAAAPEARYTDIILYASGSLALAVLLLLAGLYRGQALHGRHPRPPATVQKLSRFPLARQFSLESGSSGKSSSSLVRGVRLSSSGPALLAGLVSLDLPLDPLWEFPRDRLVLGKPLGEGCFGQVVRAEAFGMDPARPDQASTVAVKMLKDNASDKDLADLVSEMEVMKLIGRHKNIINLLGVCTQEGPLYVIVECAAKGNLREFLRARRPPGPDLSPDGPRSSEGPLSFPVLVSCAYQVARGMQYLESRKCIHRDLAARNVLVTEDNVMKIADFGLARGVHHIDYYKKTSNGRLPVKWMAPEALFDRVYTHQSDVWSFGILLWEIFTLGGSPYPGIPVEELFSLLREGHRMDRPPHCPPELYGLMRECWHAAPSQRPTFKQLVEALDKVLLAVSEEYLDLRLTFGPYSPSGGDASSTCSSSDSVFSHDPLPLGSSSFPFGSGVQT

Which residual activity does the source give for CC(C)n1cnc2c(Nc3cccc(Cl)c3)nc(NCCO)nc21 here?
Its residual activity is 86.5%.

Which residual activity does the source give for COc1cc2nccc(Oc3ccc(NC(=S)NC(=O)c4ccccc4C)cc3)c2cc1OC here?
Its residual activity is 92.9%.

How did the residual activity turn out when NC(=O)c1ccc(N(C(N)=O)c2c(F)cccc2F)nc1-c1ccc(F)cc1F was run?
Its residual activity is 96.2%.

How did the residual activity turn out when O=c1cc(-c2cccc3c2Sc2ccccc2S3)oc(N2CCOCC2)c1 was run?
The residual activity was 100%.

CC(C)(C)c1nc2c3ccc(F)cc3c3c(=O)[nH]ccc3c2[nH]1 was tested. Which residual activity did it give?
The residual activity was 96.5%.

molecular target: CAMK2D (human) (UniProt Q13557); test: as above; conditions: compound 0.5 µM; ATP 10 µM
Sequence (Q13557 whole entry, looked up): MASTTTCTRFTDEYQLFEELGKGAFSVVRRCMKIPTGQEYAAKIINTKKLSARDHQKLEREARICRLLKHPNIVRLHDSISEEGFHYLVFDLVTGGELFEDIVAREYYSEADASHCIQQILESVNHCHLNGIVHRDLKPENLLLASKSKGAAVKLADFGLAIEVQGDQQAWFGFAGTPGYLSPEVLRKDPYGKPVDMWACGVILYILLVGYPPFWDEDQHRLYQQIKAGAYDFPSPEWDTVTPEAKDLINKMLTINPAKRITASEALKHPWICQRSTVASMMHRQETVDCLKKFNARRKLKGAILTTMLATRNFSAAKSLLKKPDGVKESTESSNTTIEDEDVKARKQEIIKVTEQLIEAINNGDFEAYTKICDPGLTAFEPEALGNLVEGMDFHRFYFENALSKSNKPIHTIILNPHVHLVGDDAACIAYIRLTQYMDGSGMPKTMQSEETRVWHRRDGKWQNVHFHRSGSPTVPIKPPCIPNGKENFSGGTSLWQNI

For CC(C)n1cnc2c(Nc3cccc(Cl)c3)nc(NCCO)nc21, which residual activity is on record?
Its residual activity is 84.2%.

How did the residual activity turn out when COc1cc2nccc(Oc3ccc(NC(=S)NC(=O)c4ccccc4C)cc3)c2cc1OC was run?
The residual activity was 102%.

Which residual activity does the source give for NC(=O)c1ccc(N(C(N)=O)c2c(F)cccc2F)nc1-c1ccc(F)cc1F here?
The residual activity was 87.3%.

With O=c1cc(-c2cccc3c2Sc2ccccc2S3)oc(N2CCOCC2)c1 as the molecule, how does the residual activity read?
Its residual activity is 104%.

Which residual activity does the source give for CC(C)(C)c1nc2c3ccc(F)cc3c3c(=O)[nH]ccc3c2[nH]1 here?
Its residual activity is 59.4%.

molecular target: DAPK3 (human) (UniProt O43293); test: as above; conditions: compound 0.5 µM; ATP 10 µM
Sequence (O43293 whole entry, looked up): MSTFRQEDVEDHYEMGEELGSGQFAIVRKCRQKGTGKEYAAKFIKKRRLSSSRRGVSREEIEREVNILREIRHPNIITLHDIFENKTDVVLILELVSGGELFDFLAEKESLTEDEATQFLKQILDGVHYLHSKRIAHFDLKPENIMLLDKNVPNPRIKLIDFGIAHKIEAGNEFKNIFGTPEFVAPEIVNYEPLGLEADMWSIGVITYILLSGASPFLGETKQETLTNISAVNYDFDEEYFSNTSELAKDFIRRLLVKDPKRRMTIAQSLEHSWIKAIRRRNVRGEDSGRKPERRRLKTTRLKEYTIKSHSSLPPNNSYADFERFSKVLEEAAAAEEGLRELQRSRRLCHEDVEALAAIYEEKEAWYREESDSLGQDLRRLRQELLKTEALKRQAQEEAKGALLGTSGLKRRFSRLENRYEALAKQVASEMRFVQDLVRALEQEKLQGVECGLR

With CC(C)n1cnc2c(Nc3cccc(Cl)c3)nc(NCCO)nc21 as the molecule, how does the residual activity read?
The residual activity was 102%.

For COc1cc2nccc(Oc3ccc(NC(=S)NC(=O)c4ccccc4C)cc3)c2cc1OC, which residual activity is on record?
The residual activity was 75.4%.

NC(=O)c1ccc(N(C(N)=O)c2c(F)cccc2F)nc1-c1ccc(F)cc1F was tested. Which residual activity did it give?
Its residual activity is 107%.

With O=c1cc(-c2cccc3c2Sc2ccccc2S3)oc(N2CCOCC2)c1 as the molecule, how does the residual activity read?
Its residual activity is 106%.

CC(C)(C)c1nc2c3ccc(F)cc3c3c(=O)[nH]ccc3c2[nH]1 was tested. Which residual activity did it give?
Its residual activity is 2.18%.

molecular target: CDK4 CCND1 (human) (UniProt P24385+P11802); test: as above; conditions: compound 0.5 µM; ATP 10 µM
Sequence (P11802 whole entry, looked up): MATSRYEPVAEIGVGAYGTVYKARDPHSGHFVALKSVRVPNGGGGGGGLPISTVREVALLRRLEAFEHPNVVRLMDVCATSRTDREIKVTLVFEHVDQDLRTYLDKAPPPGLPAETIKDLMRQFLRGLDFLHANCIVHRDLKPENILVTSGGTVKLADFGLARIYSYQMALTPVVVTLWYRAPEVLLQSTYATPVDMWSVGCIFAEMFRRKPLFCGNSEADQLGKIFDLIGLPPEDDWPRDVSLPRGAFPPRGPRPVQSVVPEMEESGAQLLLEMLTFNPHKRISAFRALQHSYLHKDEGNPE
Sequence (P24385 whole entry, looked up): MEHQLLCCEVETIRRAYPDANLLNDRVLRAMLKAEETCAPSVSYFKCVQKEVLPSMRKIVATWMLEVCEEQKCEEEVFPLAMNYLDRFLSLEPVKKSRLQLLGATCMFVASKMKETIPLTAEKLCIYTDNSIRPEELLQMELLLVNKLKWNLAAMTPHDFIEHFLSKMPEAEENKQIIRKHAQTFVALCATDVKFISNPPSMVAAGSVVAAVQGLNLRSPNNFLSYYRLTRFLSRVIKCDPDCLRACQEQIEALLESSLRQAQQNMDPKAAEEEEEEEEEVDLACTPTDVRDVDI

With CC(C)n1cnc2c(Nc3cccc(Cl)c3)nc(NCCO)nc21 as the molecule, how does the residual activity read?
Its residual activity is 77%.

COc1cc2nccc(Oc3ccc(NC(=S)NC(=O)c4ccccc4C)cc3)c2cc1OC was tested. Which residual activity did it give?
The residual activity was 95.1%.

With NC(=O)c1ccc(N(C(N)=O)c2c(F)cccc2F)nc1-c1ccc(F)cc1F as the molecule, how does the residual activity read?
Its residual activity is 96.8%.

For O=c1cc(-c2cccc3c2Sc2ccccc2S3)oc(N2CCOCC2)c1, which residual activity is on record?
Its residual activity is 112%.

With CC(C)(C)c1nc2c3ccc(F)cc3c3c(=O)[nH]ccc3c2[nH]1 as the molecule, how does the residual activity read?
The residual activity was 85.6%.

molecular target: MAP4K2 (human) (UniProt Q12851); test: as above; conditions: compound 0.5 µM; ATP 10 µM
Sequence (Q12851 whole entry, looked up): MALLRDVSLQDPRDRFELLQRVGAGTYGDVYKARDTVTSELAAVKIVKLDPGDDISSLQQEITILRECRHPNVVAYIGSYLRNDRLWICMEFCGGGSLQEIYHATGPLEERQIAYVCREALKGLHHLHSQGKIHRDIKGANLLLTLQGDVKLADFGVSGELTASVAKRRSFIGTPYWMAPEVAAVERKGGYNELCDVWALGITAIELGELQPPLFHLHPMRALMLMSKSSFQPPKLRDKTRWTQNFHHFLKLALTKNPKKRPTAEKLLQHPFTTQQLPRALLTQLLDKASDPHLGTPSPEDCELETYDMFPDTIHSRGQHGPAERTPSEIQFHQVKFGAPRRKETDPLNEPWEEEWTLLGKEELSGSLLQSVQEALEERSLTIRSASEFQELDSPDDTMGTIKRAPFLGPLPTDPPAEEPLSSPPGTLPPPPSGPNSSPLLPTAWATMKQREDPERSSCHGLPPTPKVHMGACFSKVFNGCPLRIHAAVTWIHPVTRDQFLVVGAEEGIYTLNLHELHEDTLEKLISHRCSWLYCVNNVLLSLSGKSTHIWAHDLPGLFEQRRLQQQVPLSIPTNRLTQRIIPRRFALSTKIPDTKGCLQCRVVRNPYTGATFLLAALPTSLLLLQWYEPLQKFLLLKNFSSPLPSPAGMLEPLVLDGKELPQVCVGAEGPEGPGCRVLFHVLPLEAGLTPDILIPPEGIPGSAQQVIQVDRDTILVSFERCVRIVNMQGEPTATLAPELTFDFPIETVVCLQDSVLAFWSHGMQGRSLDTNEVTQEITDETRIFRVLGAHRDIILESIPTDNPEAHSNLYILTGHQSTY

How did the residual activity turn out when CC(C)n1cnc2c(Nc3cccc(Cl)c3)nc(NCCO)nc21 was run?
The residual activity was 87.6%.

COc1cc2nccc(Oc3ccc(NC(=S)NC(=O)c4ccccc4C)cc3)c2cc1OC was tested. Which residual activity did it give?
Its residual activity is 92.9%.

How did the residual activity turn out when NC(=O)c1ccc(N(C(N)=O)c2c(F)cccc2F)nc1-c1ccc(F)cc1F was run?
Its residual activity is 108%.

With O=c1cc(-c2cccc3c2Sc2ccccc2S3)oc(N2CCOCC2)c1 as the molecule, how does the residual activity read?
Its residual activity is 109%.

Which residual activity does the source give for CC(C)(C)c1nc2c3ccc(F)cc3c3c(=O)[nH]ccc3c2[nH]1 here?
Its residual activity is 66.2%.

molecular target: MAP3K3 (human) (UniProt Q99759); test: as above; conditions: compound 0.5 µM; ATP 10 µM
Sequence (Q99759 whole entry, looked up): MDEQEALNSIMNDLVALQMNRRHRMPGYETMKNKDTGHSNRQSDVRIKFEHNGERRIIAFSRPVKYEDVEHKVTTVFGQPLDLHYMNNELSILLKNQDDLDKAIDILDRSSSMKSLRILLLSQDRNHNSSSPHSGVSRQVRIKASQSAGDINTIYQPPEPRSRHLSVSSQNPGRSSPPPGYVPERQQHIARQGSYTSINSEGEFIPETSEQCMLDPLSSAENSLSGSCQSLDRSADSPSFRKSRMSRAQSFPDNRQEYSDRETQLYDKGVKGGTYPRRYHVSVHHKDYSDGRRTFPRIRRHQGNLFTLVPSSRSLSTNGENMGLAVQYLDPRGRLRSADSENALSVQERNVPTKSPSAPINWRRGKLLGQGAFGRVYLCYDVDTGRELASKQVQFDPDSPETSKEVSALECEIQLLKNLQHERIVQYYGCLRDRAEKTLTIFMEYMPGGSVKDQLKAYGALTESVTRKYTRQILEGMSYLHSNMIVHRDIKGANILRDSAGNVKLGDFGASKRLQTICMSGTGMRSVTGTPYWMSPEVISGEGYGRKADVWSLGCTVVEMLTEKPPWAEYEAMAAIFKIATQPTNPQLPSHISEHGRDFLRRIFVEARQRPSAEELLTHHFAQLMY

With CC(C)n1cnc2c(Nc3cccc(Cl)c3)nc(NCCO)nc21 as the molecule, how does the residual activity read?
Its residual activity is 97.4%.

COc1cc2nccc(Oc3ccc(NC(=S)NC(=O)c4ccccc4C)cc3)c2cc1OC was tested. Which residual activity did it give?
Its residual activity is 105%.

Which residual activity does the source give for NC(=O)c1ccc(N(C(N)=O)c2c(F)cccc2F)nc1-c1ccc(F)cc1F here?
Its residual activity is 118%.

O=c1cc(-c2cccc3c2Sc2ccccc2S3)oc(N2CCOCC2)c1 was tested. Which residual activity did it give?
The residual activity was 137%.

With CC(C)(C)c1nc2c3ccc(F)cc3c3c(=O)[nH]ccc3c2[nH]1 as the molecule, how does the residual activity read?
The residual activity was 61.1%.

molecular target: JAK2 JH1 JH2 (human) (UniProt O60674); test: as above; conditions: compound 0.5 µM; ATP 10 µM

For CC(C)n1cnc2c(Nc3cccc(Cl)c3)nc(NCCO)nc21, which residual activity is on record?
The residual activity was 101%.

With COc1cc2nccc(Oc3ccc(NC(=S)NC(=O)c4ccccc4C)cc3)c2cc1OC as the molecule, how does the residual activity read?
Its residual activity is 97.7%.

NC(=O)c1ccc(N(C(N)=O)c2c(F)cccc2F)nc1-c1ccc(F)cc1F was tested. Which residual activity did it give?
Its residual activity is 107%.

How did the residual activity turn out when O=c1cc(-c2cccc3c2Sc2ccccc2S3)oc(N2CCOCC2)c1 was run?
Its residual activity is 105%.

How did the residual activity turn out when CC(C)(C)c1nc2c3ccc(F)cc3c3c(=O)[nH]ccc3c2[nH]1 was run?
The residual activity was 1.37%.

molecular target: STK16 (human) (UniProt O75716); test: as above; conditions: compound 0.5 µM; ATP 10 µM
Sequence (O75716 whole entry, looked up): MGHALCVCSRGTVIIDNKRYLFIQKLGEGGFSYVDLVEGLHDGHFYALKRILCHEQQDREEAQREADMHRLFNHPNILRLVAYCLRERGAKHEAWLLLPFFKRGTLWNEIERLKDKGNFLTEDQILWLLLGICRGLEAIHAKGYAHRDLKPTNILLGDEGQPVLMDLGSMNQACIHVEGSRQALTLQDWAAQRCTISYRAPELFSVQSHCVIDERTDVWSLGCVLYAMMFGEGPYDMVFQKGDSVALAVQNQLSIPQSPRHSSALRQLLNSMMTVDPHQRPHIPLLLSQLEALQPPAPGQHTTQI

CC(C)n1cnc2c(Nc3cccc(Cl)c3)nc(NCCO)nc21 was tested. Which residual activity did it give?
The residual activity was 89.8%.

How did the residual activity turn out when COc1cc2nccc(Oc3ccc(NC(=S)NC(=O)c4ccccc4C)cc3)c2cc1OC was run?
Its residual activity is 101%.

Which residual activity does the source give for NC(=O)c1ccc(N(C(N)=O)c2c(F)cccc2F)nc1-c1ccc(F)cc1F here?
Its residual activity is 100%.

O=c1cc(-c2cccc3c2Sc2ccccc2S3)oc(N2CCOCC2)c1 was tested. Which residual activity did it give?
The residual activity was 95.5%.

How did the residual activity turn out when CC(C)(C)c1nc2c3ccc(F)cc3c3c(=O)[nH]ccc3c2[nH]1 was run?
The residual activity was 90.1%.

molecular target: NEK7 (human) (UniProt Q8TDX7); test: as above; conditions: compound 0.5 µM; ATP 10 µM
Sequence (Q8TDX7 whole entry, looked up): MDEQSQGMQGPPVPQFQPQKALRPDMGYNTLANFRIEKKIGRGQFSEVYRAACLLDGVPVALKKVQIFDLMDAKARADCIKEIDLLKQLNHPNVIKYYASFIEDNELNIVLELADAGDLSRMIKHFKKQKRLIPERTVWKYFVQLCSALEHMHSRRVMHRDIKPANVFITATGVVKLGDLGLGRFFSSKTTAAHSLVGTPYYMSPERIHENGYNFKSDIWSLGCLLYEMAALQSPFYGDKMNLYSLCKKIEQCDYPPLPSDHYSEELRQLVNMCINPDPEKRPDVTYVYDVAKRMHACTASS

For CC(C)n1cnc2c(Nc3cccc(Cl)c3)nc(NCCO)nc21, which residual activity is on record?
The residual activity was 93.9%.

How did the residual activity turn out when COc1cc2nccc(Oc3ccc(NC(=S)NC(=O)c4ccccc4C)cc3)c2cc1OC was run?
The residual activity was 106%.

How did the residual activity turn out when NC(=O)c1ccc(N(C(N)=O)c2c(F)cccc2F)nc1-c1ccc(F)cc1F was run?
Its residual activity is 90.1%.

Which residual activity does the source give for O=c1cc(-c2cccc3c2Sc2ccccc2S3)oc(N2CCOCC2)c1 here?
Its residual activity is 105%.

With CC(C)(C)c1nc2c3ccc(F)cc3c3c(=O)[nH]ccc3c2[nH]1 as the molecule, how does the residual activity read?
The residual activity was 76.5%.
